From patent US7297700B2, “Bicycloheteroaryl compounds as P2X7 modulators and uses thereof” (Renovis, Inc., priority 2005, dated 2007)

These molecules were tested on IL-1β release from THP-1 cells (assay: IL-1β Release Assay (Alternate Method), THP-1 cells). Conditions: Homo sapiens, THP-1, read-out: IL-1β % inhibition.
Assay type: cell-based, human
Description: THP-1 cells (ATCC Cat #285-IF-100) are plated in 96 well plates at a concentration of 200,000 cells per well and allowed to differentiate in RPMI-1640 media (ATCC Cat #30-2001) containing 10% FBS, 100 IU/mL penicillin, 100 ug/mL streptomycin, 100 ng/mL LPS and 100 ng/mL IFN-γ for 16 hours. Following differentiation, the cells are treated for an additional 2 hours in RPMI-1640 media containing 100 IU/mL penicillin, 100 ug/mL streptomycin and fresh LPS at 100 ng/mL. The cells are then pretreated for 30 minutes with the compound of interest at the appropriate concentration in RPMI media containing 100 IU/mL penicillin, 100 ug/mL streptomycin. Following the pretreatment 2′, 3′-O-(4-benzoylbenzoyl)-adenosine 5′-triphosphate (Sigma Aldrich Cat#B6396) is added to a final concentration of 250 uM and the cells incubated for an additional 45 minutes. 30 uL of cell supernatant is then collected and IL-1β levels determined via ELISA (R&D systems Cat. #HSLB50) according to manufacturer's recommendations using the Tecan Safire plate reader. Background adjusted IL-1β levels of drug treated and non-treated cells are used to calculate the percent inhibition.

Q: How did the inhibition at 0.3 µM turn out when O=C(CC12CC3CC(CC(C3)C1)C2)Nc1ncnc2c1CCN(S(=O)(=O)c1ccccc1)C2 [Compound 143] was run?
A: 0 to 25%

Same assay, conditions: Homo sapiens; at 0.3 μM; THP-1 cells; read-out: IL-1β % inhibition

Q: With O=C(NCC12CC3CC(CC(C3)C1)C2)c1ncnc2c1CCN(Cc1ccc(F)cc1F)C2 [Compound 137] as the molecule, how does the inhibition at 0.3 µM read?
A: 50 to 75%

Same assay, conditions: at 0.3 μM; THP-1 cells

Q: With O=C(CC12CC3CC(CC(C3)C1)C2)Nc1ncnc2c1CCN(Cc1ccc(F)cc1C(F)(F)F)C2 [Compound 107] as the molecule, how does the IL-1β % inhibition read?
A: + (compound exhibited 0-25% inhibition at 0.3 μM)

Q: How did the IL-1β % inhibition turn out when O=C(CC12CC3CC(CC(C3)C1)C2)Nc1ncnc2c1CCN(Cc1cc(F)cc(C(F)(F)F)c1)C2 [Compound 108] was run?
A: + (compound exhibited 0-25% inhibition at 0.3 μM)

Q: With O=C(CC12CC3CC(CC(C3)C1)C2)Nc1ncnc2c1CCN(Cc1cc(C(F)(F)F)ccc1F)C2 [Compound 109] as the molecule, how does the IL-1β % inhibition read?
A: ++ (compound exhibited 25-50% inhibition at 0.3 μM)

Q: For O=C(CC12CC3CC(CC(C3)C1)C2)Nc1ncnc2c1CCN(Cc1ccc(C(F)(F)F)cc1F)C2 [Compound 110], which IL-1β % inhibition is on record?
A: + (compound exhibited 0-25% inhibition at 0.3 μM)

Q: With O=C(CC12CC3CC(CC(C3)C1)C2)Nc1ncnc2c1CCN(Cc1c(F)cccc1C(F)(F)F)C2 [Compound 111] as the molecule, how does the IL-1β % inhibition read?
A: ++ (compound exhibited 25-50% inhibition at 0.3 μM)

Q: With Cc1ccc(CN2CCc3c(ncnc3NC(=O)CC34CC5CC(CC(C5)C3)C4)C2)c2ccccc12 [Compound 112] as the molecule, how does the IL-1β % inhibition read?
A: + (compound exhibited 0-25% inhibition at 0.3 μM)

Q: With CC(C)Oc1ccc(CN2CCc3c(ncnc3NC(=O)CC34CC5CC(CC(C5)C3)C4)C2)cc1 [Compound 113] as the molecule, how does the IL-1β % inhibition read?
A: + (compound exhibited 0-25% inhibition at 0.3 μM)

Q: How did the IL-1β % inhibition turn out when O=C(CC12CC3CC(CC(C3)C1)C2)Nc1ncnc2c1CCN(Cc1cccc(OC(F)(F)F)c1)C2 [Compound 114] was run?
A: + (compound exhibited 0-25% inhibition at 0.3 μM)

Q: For O=C(O)C=Cc1ccc(CN2CCc3c(ncnc3NC(=O)CC34CC5CC(CC(C5)C3)C4)C2)cc1 [Compound 115], which IL-1β % inhibition is on record?
A: + (compound exhibited 0-25% inhibition at 0.3 μM)

Q: With CSc1ccc(CN2CCc3c(ncnc3NC(=O)CC34CC5CC(CC(C5)C3)C4)C2)cc1 [Compound 116] as the molecule, how does the IL-1β % inhibition read?
A: + (compound exhibited 0-25% inhibition at 0.3 μM)

Q: Which IL-1β % inhibition does the source give for COc1cc(CN2CCc3c(ncnc3NC(=O)CC34CC5CC(CC(C5)C3)C4)C2)ccc1O [Compound 117] here?
A: + (compound exhibited 0-25% inhibition at 0.3 μM)

Q: How did the IL-1β % inhibition turn out when Cc1cccc(CN2CCc3c(ncnc3NC(=O)CC34CC5CC(CC(C5)C3)C4)C2)n1 [Compound 118] was run?
A: + (compound exhibited 0-25% inhibition at 0.3 μM)

Q: Which IL-1β % inhibition does the source give for COc1ccc(CN2CCc3c(ncnc3NC(=O)CC34CC5CC(CC(C5)C3)C4)C2)cc1F [Compound 119] here?
A: ++ (compound exhibited 25-50% inhibition at 0.3 μM)

Q: Which IL-1β % inhibition does the source give for O=C(CC12CC3CC(CC(C3)C1)C2)Nc1ncnc2c1CCN(Cc1ccccc1C(F)(F)F)C2 [Compound 120] here?
A: + (compound exhibited 0-25% inhibition at 0.3 μM)

Q: For O=C(CC12CC3CC(CC(C3)C1)C2)Nc1ncnc2c1CCN(CC1CCCC1)C2 [Compound 121], which IL-1β % inhibition is on record?
A: + (compound exhibited 0-25% inhibition at 0.3 μM)

Q: Which IL-1β % inhibition does the source give for O=C(CC12CC3CC(CC(C3)C1)C2)Nc1ncnc2c1CCN(CC1CCCCC1)C2 [Compound 122] here?
A: + (compound exhibited 0-25% inhibition at 0.3 μM)

Q: With O=C(CC12CC3CC(CC(C3)C1)C2)Nc1ncnc2c1CCN(Cc1ccc(F)cc1)C2 [Compound 123] as the molecule, how does the IL-1β % inhibition read?
A: + (compound exhibited 0-25% inhibition at 0.3 μM)

Q: Which IL-1β % inhibition does the source give for Cc1ccc(CN2CCc3c(ncnc3NC(=O)CC3CCCCCC3)C2)s1 [Compound 125] here?
A: + (compound exhibited 0-25% inhibition at 0.3 μM)

Q: How did the IL-1β % inhibition turn out when O=C(CC1CCCCCC1)Nc1ncnc2c1CCN(Cc1c[nH]cn1)C2 [Compound 126] was run?
A: + (compound exhibited 0-25% inhibition at 0.3 μM)

Q: With O=C(CC1CCCCCC1)Nc1ncnc2c1CCN(CC1CCCCC1)C2 [Compound 127] as the molecule, how does the IL-1β % inhibition read?
A: + (compound exhibited 0-25% inhibition at 0.3 μM)

Q: Which IL-1β % inhibition does the source give for O=C(CC1CCCCCC1)Nc1ncnc2c1CCN(CC1CCCC1)C2 [Compound 128] here?
A: + (compound exhibited 0-25% inhibition at 0.3 μM)

Q: Which IL-1β % inhibition does the source give for O=C(CC1CCCCCC1)Nc1ncnc2c1CCN(CCc1ccccc1)C2 [Compound 129] here?
A: + (compound exhibited 0-25% inhibition at 0.3 μM)

Q: How did the IL-1β % inhibition turn out when O=C(CC1CCCCCC1)Nc1ncnc2c1CCN(Cc1ccc(F)cc1)C2 [Compound 130] was run?
A: + (compound exhibited 0-25% inhibition at 0.3 μM)

Q: O=C(CC12CC3CC(CC(C3)C1)C2)Nc1ncnc2c1CCN(Cc1cccc(C(F)(F)F)c1F)C2 [Compound 131] was tested. Which IL-1β % inhibition did it give?
A: + (compound exhibited 0-25% inhibition at 0.3 μM)

Q: With COc1ccccc1CCC(=O)Nc1ncnc2c1CCN(Cc1ccncc1)C2 [Compound 133] as the molecule, how does the IL-1β % inhibition read?
A: + (compound exhibited 0-25% inhibition at 0.3 μM)

Q: For COc1ccccc1CCC(=O)Nc1ncnc2c1CCN(Cc1ccccn1)C2 [Compound 134], which IL-1β % inhibition is on record?
A: + (compound exhibited 0-25% inhibition at 0.3 μM)

Q: Which IL-1β % inhibition does the source give for COc1ccccc1CCC(=O)Nc1ncnc2c1CCN(Cc1c[nH]cn1)C2 [Compound 135] here?
A: + (compound exhibited 0-25% inhibition at 0.3 μM)

Q: With COc1ccccc1CCC(=O)Nc1ncnc2c1CCN(CC1CCCCC1)C2 [Compound 136] as the molecule, how does the IL-1β % inhibition read?
A: + (compound exhibited 0-25% inhibition at 0.3 μM)

Q: Which IL-1β % inhibition does the source give for O=C(NCC12CC3CC(CC(C3)C1)C2)c1ncnc2c1CCN(Cc1ccc3c(c1)OCCO3)C2 [Compound 138] here?
A: ++++ (compound exhibited 75% or greater inhibition at 0.3 μM)

Q: Which IL-1β % inhibition does the source give for O=C(NCC12CC3CC(CC(C3)C1)C2)c1ncnc2c1CCN(Cc1ccccc1F)C2 [Compound 139] here?
A: ++ (compound exhibited 25-50% inhibition at 0.3 μM)

Q: With O=C(O)COc1ccc(CN2CCc3c(ncnc3NC(=O)CC34CC5CC(CC(C5)C3)C4)C2)cc1 [Compound 140] as the molecule, how does the IL-1β % inhibition read?
A: + (compound exhibited 0-25% inhibition at 0.3 μM)

Q: Which IL-1β % inhibition does the source give for O=C(O)COc1ccccc1CN1CCc2c(ncnc2NC(=O)CC23CC4CC(CC(C4)C2)C3)C1 [Compound 141] here?
A: + (compound exhibited 0-25% inhibition at 0.3 μM)

Q: For CS(=O)(=O)N1CCc2c(ncnc2NC(=O)CC23CC4CC(CC(C4)C2)C3)C1 [Compound 142], which IL-1β % inhibition is on record?
A: +++ (compound exhibited 50-75% inhibition at 0.3 μM)

Q: With Cc1ccc(S(=O)(=O)N2CCc3c(ncnc3NC(=O)CC34CC5CC(CC(C5)C3)C4)C2)cc1 [Compound 144] as the molecule, how does the IL-1β % inhibition read?
A: +++ (compound exhibited 50-75% inhibition at 0.3 μM)

Q: Which IL-1β % inhibition does the source give for CCCS(=O)(=O)N1CCc2c(ncnc2NC(=O)CC23CC4CC(CC(C4)C2)C3)C1 [Compound 147] here?
A: ++++ (compound exhibited 75% or greater inhibition at 0.3 μM)

Q: CCS(=O)(=O)N1CCc2c(ncnc2NC(=O)CC23CC4CC(CC(C4)C2)C3)C1 [Compound 148] was tested. Which IL-1β % inhibition did it give?
A: + (compound exhibited 0-25% inhibition at 0.3 μM)

Q: How did the IL-1β % inhibition turn out when COc1ccc(S(=O)(=O)N2CCc3c(ncnc3NC(=O)CC34CC5CC(CC(C5)C3)C4)C2)cc1 [Compound 149] was run?
A: +++ (compound exhibited 50-75% inhibition at 0.3 μM)

Q: With COc1ccc(S(=O)(=O)N2CCc3c(ncnc3NC(=O)CC34CC5CC(CC(C5)C3)C4)C2)cc1OC [Compound 151] as the molecule, how does the IL-1β % inhibition read?
A: + (compound exhibited 0-25% inhibition at 0.3 μM)

Q: O=C(CC12CC3CC(CC(C3)C1)C2)Nc1ncnc2c1CCN(S(=O)(=O)c1ccc(F)cc1)C2 [Compound 152] was tested. Which IL-1β % inhibition did it give?
A: + (compound exhibited 0-25% inhibition at 0.3 μM)

Q: O=C(CC12CC3CC(CC(C3)C1)C2)Nc1ncnc2c1CCN(S(=O)(=O)Cc1ccccc1)C2 [Compound 153] was tested. Which IL-1β % inhibition did it give?
A: ++++ (compound exhibited 75% or greater inhibition at 0.3 μM)

Q: For O=C(CC12CC3CC(CC(C3)C1)C2)Nc1ncnc2c1CCN(S(=O)(=O)c1cccc(C(F)(F)F)c1)C2 [Compound 154], which IL-1β % inhibition is on record?
A: ++++ (compound exhibited 75% or greater inhibition at 0.3 μM)

Q: With O=C(CC12CC3CC(CC(C3)C1)C2)Nc1ncnc2c1CCN(S(=O)(=O)c1ccc(Cl)c(Cl)c1)C2 [Compound 155] as the molecule, how does the IL-1β % inhibition read?
A: + (compound exhibited 0-25% inhibition at 0.3 μM)

Q: With CN1CCOc2cc(S(=O)(=O)N3CCc4c(ncnc4NC(=O)CC45CC6CC(CC(C6)C4)C5)C3)ccc21 [Compound 157] as the molecule, how does the IL-1β % inhibition read?
A: + (compound exhibited 0-25% inhibition at 0.3 μM)

Q: Cc1nn(C)c(Cl)c1S(=O)(=O)N1CCc2c(ncnc2NC(=O)CC23CC4CC(CC(C4)C2)C3)C1 [Compound 158] was tested. Which IL-1β % inhibition did it give?
A: + (compound exhibited 0-25% inhibition at 0.3 μM)

Q: With Cc1cc(S(=O)(=O)N2CCc3c(ncnc3NC(=O)CC34CC5CC(CC(C5)C3)C4)C2)c(C(F)(F)F)o1 [Compound 159] as the molecule, how does the IL-1β % inhibition read?
A: + (compound exhibited 0-25% inhibition at 0.3 μM)

Q: How did the IL-1β % inhibition turn out when Cc1c(S(=O)(=O)N2CCc3c(ncnc3NC(=O)CC34CC5CC(CC(C5)C3)C4)C2)cnn1-c1ccccc1 [Compound 160] was run?
A: ++++ (compound exhibited 75% or greater inhibition at 0.3 μM)

Q: For O=C(CC12CC3CC(CC(C3)C1)C2)Nc1ncnc2c1CCN(S(=O)(=O)c1cccc(OC(F)(F)F)c1)C2 [Compound 161], which IL-1β % inhibition is on record?
A: ++ (compound exhibited 25-50% inhibition at 0.3 μM)

Q: For COc1cccc(S(=O)(=O)N2CCc3c(ncnc3NC(=O)CC34CC5CC(CC(C5)C3)C4)C2)c1 [Compound 162], which IL-1β % inhibition is on record?
A: + (compound exhibited 0-25% inhibition at 0.3 μM)

Q: For Cc1nc(S(=O)(=O)N2CCc3c(ncnc3NC(=O)CC34CC5CC(CC(C5)C3)C4)C2)cn1C [Compound 164], which IL-1β % inhibition is on record?
A: + (compound exhibited 0-25% inhibition at 0.3 μM)
